Organism: Rattus norvegicus
Experiment: Open TG-GATES - Regimen: Single
Assay type: toxicity, organism-based, Sprague-Dawley
Design: regimen Single, gender Male, age 6 weeks
Conditions: in vivo, po, route gavage; for gamma-GTP / ALP / ALT / AST / BUN / CRE / Ca / Cl / DBIL / GLC / IP / K / LDH / Na / PL / RALB / TBIL / TG / TP: tissue Plasma; for APTT / Bas / Eos / Fbg / Hb / Ht / Lym / MCH / MCV / Mono / Neu / PT / Plat / RBC / Ret / WBC: tissue Blood; for KIDNEY_L / KIDNEY_R / KIDNEY_TOTAL: tissue Kidney; for LIVER: tissue Liver
[1] = 100 mg/kg, 3 h, dose level Middle
[2] = 100 mg/kg, 6 h, dose level Middle
[3] = 100 mg/kg, 9 h, dose level Middle
[4] = 100 mg/kg, 24 h, dose level Middle
[5] = 300 mg/kg, 3 h, dose level High
[6] = 300 mg/kg, 6 h, dose level High
[7] = 300 mg/kg, 9 h, dose level High
[8] = 300 mg/kg, 24 h, dose level High

NC(=O)N1c2ccccc2C=Cc2ccccc21 [CARBAMAZEPINE]
gamma-GTP (30 mg/kg, 24 h, dose level Low): 0.8 IU/L | TERMINAL_BW [1]: 216.3 g | APTT [1]: 19.3 s | Bas [1]: 0% | Eos [1]: 1.2% | Fbg [1]: 209.4 mg/dL | Hb [1]: 13.2 g/dL | Ht [1]: 38.8% | Lym [1]: 77.4% | MCH [1]: 21.3 pg | MCV [1]: 62.7 fL | Mono [1]: 2.8% | Neu [1]: 17.2% | PT [1]: 12.4 s | Plat [1]: 121.8 x10_4/uL | RBC [1]: 619 x10_4/ul | Ret [1]: 7.2% | WBC [1]: 96 x10_2/uL | KIDNEY_L [1]: 0.9 g | KIDNEY_R [1]: 0.9 g | KIDNEY_TOTAL [1]: 1.9 g | LIVER [1]: 9.8 g | ALP [1]: 792.4 IU/L | ALT [1]: 35.8 IU/L | AST [1]: 63.8 IU/L | BUN [1]: 9.2 mg/dL | CRE [1]: 0.4 mg/dL | Ca [1]: 10.4 mg/dL | Cl [1]: 102 meq/L | DBIL [1]: 0.076 mg/dL | GLC [1]: 190 mg/dL | IP [1]: 9.9 mg/dL | K [1]: 3.8 meq/L | LDH [1]: 202 IU/L | Na [1]: 140.6 meq/L | PL [1]: 152.4 mg/dL | RALB [1]: 3.3 g/dL | TBIL [1]: 0.1 mg/dL | TG [1]: 62 mg/dL | TP [1]: 5.5 g/dL | gamma-GTP [1]: 1 IU/L | TERMINAL_BW [2]: 210.4 g | APTT [2]: 20.3 s | Bas [2]: 0% | Eos [2]: 1% | Fbg [2]: 210 mg/dL | Hb [2]: 13.2 g/dL | Ht [2]: 38.7% | Lym [2]: 80.4% | MCH [2]: 20.8 pg | MCV [2]: 61.1 fL | Mono [2]: 2.6% | Neu [2]: 14.8% | PT [2]: 12.8 s | Plat [2]: 121.9 x10_4/uL | RBC [2]: 633.2 x10_4/ul | Ret [2]: 6.5% | WBC [2]: 95.7 x10_2/uL | KIDNEY_L [2]: 0.9 g | KIDNEY_R [2]: 0.9 g | KIDNEY_TOTAL [2]: 1.8 g | LIVER [2]: 9.1 g | ALP [2]: 803.4 IU/L | ALT [2]: 30.8 IU/L | AST [2]: 60.4 IU/L | BUN [2]: 9.4 mg/dL | CRE [2]: 0.4 mg/dL | Ca [2]: 10.6 mg/dL | Cl [2]: 102.4 meq/L | DBIL [2]: 0.084 mg/dL | GLC [2]: 190.6 mg/dL | IP [2]: 9.4 mg/dL | K [2]: 3.8 meq/L | LDH [2]: 175.2 IU/L | Na [2]: 140.8 meq/L | PL [2]: 142 mg/dL | RALB [2]: 3.4 g/dL | TBIL [2]: 0.1 mg/dL | TG [2]: 58.4 mg/dL | TP [2]: 5.6 g/dL | gamma-GTP [2]: 0.6 IU/L | TERMINAL_BW [3]: 211 g | APTT [3]: 18.6 s | Bas [3]: 0% | Eos [3]: 1% | Fbg [3]: 204.6 mg/dL | Hb [3]: 13.3 g/dL | Ht [3]: 38.7% | Lym [3]: 81.4% | MCH [3]: 21.3 pg | MCV [3]: 61.9 fL | Mono [3]: 2.4% | Neu [3]: 14.8% | PT [3]: 13.2 s | Plat [3]: 120.7 x10_4/uL | RBC [3]: 625.2 x10_4/ul | Ret [3]: 6.4% | WBC [3]: 91.7 x10_2/uL | KIDNEY_L [3]: 1 g | KIDNEY_R [3]: 1 g | KIDNEY_TOTAL [3]: 2 g | LIVER [3]: 8.6 g | ALP [3]: 828.4 IU/L | ALT [3]: 25.2 IU/L | AST [3]: 57.6 IU/L | BUN [3]: 9.6 mg/dL | CRE [3]: 0.3 mg/dL | Ca [3]: 10.3 mg/dL | Cl [3]: 101.6 meq/L | DBIL [3]: 0.064 mg/dL | GLC [3]: 197 mg/dL | IP [3]: 10.1 mg/dL | K [3]: 3.7 meq/L | LDH [3]: 176.2 IU/L | Na [3]: 140.2 meq/L | PL [3]: 133.2 mg/dL | RALB [3]: 3.4 g/dL | TBIL [3]: 0.1 mg/dL | TG [3]: 45.6 mg/dL | TP [3]: 5.4 g/dL | gamma-GTP [3]: 0.8 IU/L | TERMINAL_BW [4]: 226.1 g | APTT [4]: 20.2 s | Bas [4]: 0% | Eos [4]: 0.8% | Fbg [4]: 211.6 mg/dL | Hb [4]: 13.3 g/dL | Ht [4]: 39.4% | Lym [4]: 80% | MCH [4]: 21.1 pg | MCV [4]: 62.7 fL | Mono [4]: 2.8% | Neu [4]: 15.6% | PT [4]: 12.2 s | Plat [4]: 123.8 x10_4/uL | RBC [4]: 629 x10_4/ul | Ret [4]: 5.9% | WBC [4]: 88.7 x10_2/uL | KIDNEY_L [4]: 1 g | KIDNEY_R [4]: 1.1 g | KIDNEY_TOTAL [4]: 2.1 g | LIVER [4]: 11.4 g | ALP [4]: 820.6 IU/L | ALT [4]: 33.8 IU/L | AST [4]: 66.4 IU/L | BUN [4]: 18.4 mg/dL | CRE [4]: 0.4 mg/dL | Ca [4]: 10.6 mg/dL | Cl [4]: 103.2 meq/L | DBIL [4]: 0.1 mg/dL | GLC [4]: 199 mg/dL | IP [4]: 7.4 mg/dL | K [4]: 4.3 meq/L | LDH [4]: 215 IU/L | Na [4]: 140.2 meq/L | PL [4]: 147 mg/dL | RALB [4]: 3.3 g/dL | TBIL [4]: 0.2 mg/dL | TP [4]: 5.5 g/dL | gamma-GTP [4]: 1 IU/L | TERMINAL_BW [5]: 216.2 g | APTT [5]: 20.3 s | Bas [5]: 0% | Eos [5]: 1% | Fbg [5]: 202 mg/dL | Hb [5]: 13 g/dL | Ht [5]: 38.4% | Lym [5]: 80% | MCH [5]: 21.6 pg | MCV [5]: 63.7 fL | Mono [5]: 2.2% | Neu [5]: 15.8% | PT [5]: 12.5 s | Plat [5]: 116.4 x10_4/uL | RBC [5]: 602.6 x10_4/ul | Ret [5]: 7% | WBC [5]: 87.3 x10_2/uL | KIDNEY_L [5]: 1 g | KIDNEY_R [5]: 1 g | KIDNEY_TOTAL [5]: 2 g | LIVER [5]: 9.7 g | ALP [5]: 789.4 IU/L | ALT [5]: 34.4 IU/L | AST [5]: 65 IU/L | BUN [5]: 10.2 mg/dL | CRE [5]: 0.4 mg/dL | Ca [5]: 10.3 mg/dL | Cl [5]: 101.8 meq/L | DBIL [5]: 0.082 mg/dL | GLC [5]: 194.8 mg/dL | IP [5]: 10 mg/dL | K [5]: 3.8 meq/L | LDH [5]: 199.6 IU/L | Na [5]: 140.2 meq/L | PL [5]: 150.8 mg/dL | RALB [5]: 3.4 g/dL | TBIL [5]: 0.1 mg/dL | TG [5]: 63 mg/dL | TP [5]: 5.4 g/dL | gamma-GTP [5]: 1 IU/L | TERMINAL_BW [6]: 212.3 g | APTT [6]: 20 s | Bas [6]: 0% | Eos [6]: 1% | Fbg [6]: 205.6 mg/dL | Hb [6]: 13.2 g/dL | Ht [6]: 38.6% | Lym [6]: 80.6% | MCH [6]: 21.2 pg | MCV [6]: 61.9 fL | Mono [6]: 3% | Neu [6]: 14% | PT [6]: 12.8 s | Plat [6]: 123.1 x10_4/uL | RBC [6]: 623 x10_4/ul | Ret [6]: 6.2% | WBC [6]: 86.4 x10_2/uL | KIDNEY_L [6]: 1 g | KIDNEY_R [6]: 1 g | KIDNEY_TOTAL [6]: 2 g | LIVER [6]: 9.2 g | ALP [6]: 891 IU/L | ALT [6]: 35.4 IU/L | AST [6]: 68 IU/L | BUN [6]: 8.6 mg/dL | CRE [6]: 0.4 mg/dL | Ca [6]: 10.4 mg/dL | Cl [6]: 102.8 meq/L | DBIL [6]: 0.074 mg/dL | GLC [6]: 188.2 mg/dL | IP [6]: 9.9 mg/dL | K [6]: 3.7 meq/L | LDH [6]: 203.4 IU/L | Na [6]: 140.8 meq/L | PL [6]: 146 mg/dL | RALB [6]: 3.4 g/dL | TBIL [6]: 0.1 mg/dL | TG [6]: 41.8 mg/dL | TP [6]: 5.6 g/dL | gamma-GTP [6]: 0.6 IU/L | TERMINAL_BW [7]: 212.2 g | APTT [7]: 20 s | Bas [7]: 0% | Eos [7]: 1% | Fbg [7]: 221.6 mg/dL | Hb [7]: 13.2 g/dL | Ht [7]: 38.3% | Lym [7]: 80.6% | MCH [7]: 20.7 pg | MCV [7]: 60.2 fL | Mono [7]: 2.2% | Neu [7]: 15.2% | PT [7]: 13.3 s | Plat [7]: 123.1 x10_4/uL | RBC [7]: 637 x10_4/ul | Ret [7]: 5.7% | WBC [7]: 77.3 x10_2/uL | KIDNEY_L [7]: 1 g | KIDNEY_R [7]: 1 g | KIDNEY_TOTAL [7]: 1.9 g | LIVER [7]: 8.5 g | ALP [7]: 816 IU/L | ALT [7]: 26.6 IU/L | AST [7]: 60.4 IU/L | BUN [7]: 9.4 mg/dL | CRE [7]: 0.3 mg/dL | Ca [7]: 10.3 mg/dL | Cl [7]: 101 meq/L | DBIL [7]: 0.068 mg/dL | GLC [7]: 195.8 mg/dL | IP [7]: 9.9 mg/dL | K [7]: 3.6 meq/L | LDH [7]: 200.6 IU/L | Na [7]: 140.6 meq/L | PL [7]: 139 mg/dL | RALB [7]: 3.4 g/dL | TBIL [7]: 0.1 mg/dL | TG [7]: 47.2 mg/dL | TP [7]: 5.6 g/dL | gamma-GTP [7]: 0.6 IU/L | TERMINAL_BW [8]: 214.8 g | APTT [8]: 20.8 s | Bas [8]: 0% | Eos [8]: 0.8% | Fbg [8]: 200.6 mg/dL | Hb [8]: 13.7 g/dL | Ht [8]: 40.4% | Lym [8]: 86% | MCH [8]: 21.7 pg | MCV [8]: 63.9 fL | Mono [8]: 2% | Neu [8]: 10.6% | PT [8]: 13 s | Plat [8]: 127.9 x10_4/uL | RBC [8]: 632.8 x10_4/ul | Ret [8]: 6% | WBC [8]: 91 x10_2/uL | KIDNEY_L [8]: 1 g | KIDNEY_R [8]: 1 g | KIDNEY_TOTAL [8]: 2 g | LIVER [8]: 9.7 g | ALP [8]: 927.8 IU/L | ALT [8]: 34.6 IU/L | AST [8]: 65 IU/L | BUN [8]: 14.8 mg/dL | CRE [8]: 0.4 mg/dL | Ca [8]: 10.4 mg/dL | Cl [8]: 103.2 meq/L | DBIL [8]: 0.1 mg/dL | GLC [8]: 203.2 mg/dL | IP [8]: 7.9 mg/dL | K [8]: 3.6 meq/L | LDH [8]: 212.2 IU/L | Na [8]: 141 meq/L | PL [8]: 121.4 mg/dL | RALB [8]: 3.4 g/dL | TBIL [8]: 0.2 mg/dL | TG [8]: 88 mg/dL | TP [8]: 5.6 g/dL | gamma-GTP [8]: 0.8 IU/L
